Test results from ChEMBL document CHEMBL2434943, “Elaboration of thorough simplified vinca alkaloids as antimitotic agents based on pharmacophore similarity” (Eur J Med Chem, 2013).
Counter-ions that a name gives are not always drawn. Calls of active or inactive are those of the source. No cut-off for these calls is given here.

Key:
MDA-MB-231 = assay: Cytotoxicity against human MDA-MB-231 cells assessed as growth inhibition after 72 hrs by MTT assay; assay type: functional, cell-based; conditions: MDA-MB-231, 72 h
Tubulin (Homo sapiens) = Tubulin (Homo sapiens) (UniProt P68371+Q9H4B7+P0DPH7+P68366+Q13509+Q71U36+P04350+Q3ZCM7+P07437+P68363+Q9BQE3+Q6PEY2+Q13885+Q9BVA1+Q9BUF5); assay: Inhibition of tubulin polymerization (unknown origin) after 90 mins; assay type: protein-complex assay
K562 = assay: Cytotoxicity against human K562 cells assessed as growth inhibition after 72 hrs by MTT assay; assay type: functional, cell-based; conditions: K562, 72 h
MCF7 = assay: Cytotoxicity against human MCF7 cells assessed as growth inhibition after 72 hrs by MTT assay; assay type: functional, cell-based; conditions: MCF7, 72 h
HepG2 [1] = assay: Cytotoxicity against human HepG2 cells assessed as growth inhibition after 72 hrs by MTT assay; assay type: functional, cell-based; conditions: HepG2, 72 h
HepG2 [2] = assay: Cytotoxicity against adriamycin-resistant human HepG2 cells assessed as growth inhibition after 72 hrs by MTT assay; assay type: functional, cell-based; conditions: HepG2, 72 h
[3] = Cytotoxicity against KM mouse splenic lymphocytes assessed as growth inhibition up to 50 uM after 72 hrs by MTT assay; conditions: splenic lymphocyte
HepG2 [4] = assay: Antimitotic activity in human HepG2 cells assessed as cell morphological changes at 18 nM after 12 hrs by DAPI staining-based laser scanning confocal microscopic analysis; assay type: functional
[5] = Cytotoxicity against KM mouse splenic lymphocytes assessed as growth inhibition after 72 hrs by MTT assay; conditions: Splenic lymphocyte

| SMILES | IC50 (MDA-MB-231) [µM] | inhibition (Tubulin (Homo sapiens)) | IC50 (K562) [µM] | IC50 (MCF7) [µM] | IC50 (HepG2 [1]) [µM] | IC50 (HepG2 [2]) [µM] | Activity [3] | Activity (HepG2 [4]) | IC50 [5] [µM] |
| --- | --- | --- | --- | --- | --- | --- | --- | --- | --- |
| COc1cccc(/C=C/C2=Nc3ccccc3C2(C)C)c1 | 3.1 | Active | 9.64 | 2.19 | 11.4 | 9.94 | – | – | – |
| COc1ccc(/C=C/C2=Nc3ccccc3C2(C)C)cc1OC | 9.11 | – | 37.1 | 12 | 35 | 28.6 | – | – | – |
| Cc1cccc(/C=C/C2=Nc3ccccc3C2(C)C)c1 | 10.1 | – | 20.7 | 8.31 | 16.4 | 10.2 | – | – | – |
| COc1ccccc1/C=C/C1=Nc2ccccc2C1(C)C | 10.7 | – | 22.9 | 5.13 | 22 | 12.6 | – | – | – |
| CC1(C)C(/C=C/c2c[nH]c3cccc(C#N)c23)=Nc2ccccc21 | 18.8 | – | 15.8 | 8.95 | 9.22 | 3.18 | Non-toxic | – | – |
| CC1(C)C(/C=C/c2c[nH]c3cc(Cl)ccc23)=Nc2ccccc21 | 20.1 | – | 13 | 19 | 18.1 | 9.98 | – | – | – |
| CC1(C)C(/C=C/c2c[nH]c3c([N+](=O)[O-])cccc23)=Nc2ccccc21 | 26.1 | – | 21 | 11.2 | 16.8 | 4 | – | – | – |
| CC[C@]1(O)C[C@@H]2CN(CCc3c([nH]c4ccccc34)[C@@](C(=O)OC)(c3cc4c(cc3OC)N(C)[C@H]3[C@@](O)(C(=O)OC)[C@H](OC(C)=O)[C@]5(CC)C=CCN6CC[C@]43[C@@H]65)C2)C1 [VINBLASTINE SULFATE] | 0.0083 | – | 0.016 | 0.007 | 0.019 | 0.056 | – | – | – |
| CC[C@]1(O)C[C@@H]2CN(CCc3c([nH]c4ccccc34)[C@@](C(=O)OC)(c3cc4c(cc3OC)N(C)[C@H]3[C@@](O)(C(=O)OC)[C@H](OC(C)=O)[C@]5(CC)C=CCN6CC[C@]43[C@@H]65)C2)C1 | – | Active | – | – | – | – | – | Active | – |
| Cc1c(/C=C/C2=Nc3ccccc3C2(C)C)c2ccccc2n1C | 38.5 | – | 23.2 | 17.1 | 35.9 | 3.34 | – | – | – |
| CC1(C)C(/C=C/c2ccccc2[N+](=O)[O-])=Nc2ccccc21 | 3.77 | – | 13 | 1.75 | 12.7 | 9.74 | – | – | – |
| CC1(C)C(/C=C/c2c[nH]c3ccccc23)=Nc2ccccc21 | 11.6 | – | 23 | 3.88 | 17.9 | 12.2 | Non-toxic | – | – |
| CC[C@]1(O)C[C@@H]2CN(CCc3c([nH]c4ccccc34)[C@@](C(=O)OC)(c3cc4c(cc3OC)N(C)[C@H]3[C@@](O)(C(=O)OC)[C@H](OC(C)=O)[C@]5(CC)C=CCN6CC[C@]43[C@@H]65)C2)C1 [VINBLASTINE] | – | – | – | – | – | – | – | – | 0.0016 |
| COc1ccc2[nH]cc(/C=C/C3=Nc4ccccc4C3(C)C)c2c1 | 14 | – | 16.9 | 7.05 | 18.5 | 23.4 | – | – | – |
| CC1(C)C(/C=C/c2c[nH]c3cc(F)ccc23)=Nc2ccccc21 | 24.4 | – | 20.2 | 3.47 | 9.87 | 14.9 | – | – | – |
| CC1(C)C(/C=C/c2ccc(Br)cc2)=Nc2ccccc21 | 5.16 | – | 20.2 | 5.26 | 15.6 | 9.92 | – | – | – |
| CCC12C=CCN3CC[C@@]4(c5ccc(OC)cc5N(C)[C@H]4[C@@](O)(C(=O)OC)[C@@H]1OC(C)=O)[C@@H]32 (stereo partly specified) [VINDOLINE] | > 50 | – | > 50 | > 50 | > 50 | > 50 | – | – | – |
| COc1cc(/C=C/C2=Nc3ccccc3C2(C)C)cc(OC)c1OC | 4.13 | – | 15.3 | 1.76 | 12.7 | 10.8 | Non-toxic | – | – |
| Cn1cc(/C=C/C2=Nc3ccccc3C2(C)C)c2ccccc21 | 22.4 | – | 20.8 | 12.6 | 39.4 | 18.7 | – | – | – |
| Cc1ccc2[nH]cc(/C=C/C3=Nc4ccccc4C3(C)C)c2c1 | 14.6 | – | 21.2 | 15.9 | 18.7 | 6.13 | – | – | – |
| CN(C)c1ccc(/C=C/C2=Nc3ccccc3C2(C)C)cc1 | 15.1 | – | 25.7 | 8.1 | 17.9 | 22.1 | – | – | – |
| CCC1=C[C@@H]2CN3CCc4c([nH]c5ccccc45)[C@@](C(=O)OC)(C2)[C@@H]13 | > 50 | – | > 50 | > 50 | > 50 | > 50 | – | – | – |
| Cc1[nH]c2ccccc2c1/C=C/C1=Nc2ccccc2C1(C)C | 32.6 | – | 22.7 | 6.25 | 15.4 | 4.41 | – | – | – |
| CCN(CC)c1ccc(/C=C/C2=Nc3ccccc3C2(C)C)cc1 | 16.1 | – | 28.2 | 11.8 | 22.9 | 15.1 | – | – | – |
| CC1(C)C(/C=C/c2cccc(C(F)(F)F)c2)=Nc2ccccc21 | 3.2 | – | 9.83 | 2.13 | 11.7 | 9.54 | – | – | 36.3 |
| CC1(C)C(/C=C/c2c[nH]c3ccc(Br)cc23)=Nc2ccccc21 | 21.8 | – | 20.1 | 21 | 21.5 | 9.1 | – | – | – |
| COc1ccc(/C=C/C2=Nc3ccccc3C2(C)C)cc1 | 15.6 | – | 19.9 | 10.4 | 20.8 | 47 | – | – | – |
| CC1(C)C(/C=C/c2ccc(C(F)(F)F)cc2)=Nc2ccccc21 | 2.63 | Active | 8.87 | 1.45 | 9.49 | 7.91 | – | – | 35.4 |
| CC1(C)C(/C=C/c2ccc([N+](=O)[O-])cc2)=Nc2ccccc21 | 2.01 | – | 4.32 | 0.96 | 5.55 | 2.49 | – | – | 20.7 |
| Cc1ccc(/C=C/C2=Nc3ccccc3C2(C)C)cc1 | 22 | – | 26.1 | 13.2 | 43.9 | > 50 | – | – | – |
